Results on three compounds are retold here after PubChem BioAssay AID1259411 (Chemical Carcinogenesis Research Information System (CCRIS), 2018).

Activity calls are given as the source filed them. How the calls were made is not given here.

The data set has as its system rodent carcinogenicity bioassays, tumor incidence. As to the kind of experiment: CCRIS carcinogenicity studies. The method, boiled down:
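NCI-built, expert-reviewed records of carcinogenicity and related test outcomes (mutagenicity, tumor promotion/inhibition) compiled from published and report sources, historical span 1985-2011, not updated.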

As to `BrCCBr`, the carcinogen call by setting is: (Species: FISH, Strain/Sex: JAPANESE MEDAKA/MALE,FEMALE, Route: IMMERSION, Dose: 0, 0.133, 6.2, 18.58 MG/L IN WATER FOR UP TO 97 D (STUDY DURATION: 58 WK), Dose: 0, 0.133, 6.2, 18.58 MG/L IN WATER FOR UP TO 97 D (STUDY DURATION: 58 WK), Tumor Site: Type of Lesion: LIVER: HEPATOCELLULAR ADENOMA, HEPATOCELLULAR CARCINOMA, CHOLANGIOMA, CHOLANGIOCELLULAR CARCINOMA, GALL BLADDER: TUMOR) “active; positive”; (Species: FISH, Strain/Sex: SHASTA RAINBOW TROUT/MALE, FEMALE, Route: ORAL, Dose: 0, 2000 PPM IN DIET FOR 18 MO (STUDY DURATION: 18 MO), Tumor Site: Type of Lesion: STOMACH: PAPILLOMA) “active; positive”; (Species: MOUSE, Strain/Sex: B6C3F1/FEMALE, Route: GAVAGE, Dose: 0, 62, 107 MG/KG, TWA IN CORN OIL (STUDY DURATION: 78-90 WK), Dose: 0, 62, 107 MG/KG, TWA IN CORN OIL (STUDY DURATION: 78-90 WK), Tumor Site: Type of Lesion: LUNG: ALVEOLAR/BRONCHIOLAR ADENOMA, CARCINOMA, STOMACH: SQUAMOUS CELL CARCINOMA) “active; positive”; (Species: MOUSE, Strain/Sex: B6C3F1/FEMALE, Route: INHALATION, Dose: 0, 10, 40 PPM 6 HR/D, 5 D/WK FOR 90-103 WK (STUDY DURATION: 91-104 WK), Dose: 0, 10, 40 PPM 6 HR/D, 5 D/WK FOR 90-103 WK (STUDY DURATION: 91-104 WK), Tumor Site: Type of Lesion: INTEGUMENTARY SYSTEM (SUBCUTANEOUS TISSUE OR RIB): FIBROSARCOMA, NASAL CAVITY: CARCINOMA (NOS), CARCINOMA (NOS) OR ADENO) “active; positive”; (Species: MOUSE, Strain/Sex: B6C3F1/FEMALE, Route: INHALATION, Dose: 0, 10, 40 PPM 6 HR/D, 5 D/WK FOR 90-103 WK (STUDY DURATION: 91-104 WK), Dose: 0, 10, 40 PPM 6 HR/D, 5 D/WK FOR 90-103 WK (STUDY DURATION: 91-104 WK), Tumor Site: Type of Lesion: NASAL CAVITY: SQUAMOUS CELL PAPILLOMA, CARCINOMA) “active; positive”; (Species: MOUSE, Strain/Sex: B6C3F1/MALE, Route: GAVAGE, Dose: 0, 62, 107 MG/KG, TWA IN CORN OIL (STUDY DURATION: 77-78 WK), Dose: 0, 62, 107 MG/KG, TWA IN CORN OIL (STUDY DURATION: 77-78 WK), Tumor Site: Type of Lesion: LUNG: ALVEOLAR/BRONCHIOLAR ADENOMA, STOMACH: SQUAMOUS CELL PAPILLOMA, SQUAMOUS CELL CARCINOMA) “active; positive”. In addition, the carcinogen call by setting is: (Species: MOUSE, Strain/Sex: B6C3F1/MALE, Route: INHALATION, Dose: 0, 10, 40 PPM 6 HR/D, 5 D/WK FOR 78 WK (STUDY DURATION: 79 WK), Dose: 0, 10, 40 PPM 6 HR/D, 5 D/WK FOR 78 WK (STUDY DURATION: 79 WK), Tumor Site: Type of Lesion: LUNG: ALVEOLAR/BRONCHIOLAR ADENOMA, ALVEOLAR/BRONCHIOLAR CARCINOMA) “active; positive”; (Species: MOUSE, Strain/Sex: B6C3F1/MALE, Route: INHALATION, Dose: 0, 10, 40 PPM 6 HR/D, 5 D/WK FOR 90-103 WK (STUDY DURATION: 91-104 WK), Dose: 0, 10, 40 PPM 6 HR/D, 5 D/WK FOR 90-103 WK (STUDY DURATION: 91-104 WK), Tumor Site: Type of Lesion: NASAL CAVITY: SQUAMOUS CELL PAPILLOMA) “active; positive”; (Species: RAT, Strain/Sex: F344/FEMALE, Route: INHALATION, Dose: 0, 10, 40 PPM 6 HR/D, 5 D/WK FOR 91-103 WK (STUDY DURATION: 92-104 WK), Dose: 0, 10, 40 PPM 6 HR/D, 5 D/WK FOR 91-103 WK (STUDY DURATION: 92-104 WK), Tumor Site: Type of Lesion: NASAL CAVITY: ADENOMA (NOS), CARCINOMA (NOS), ADENOCARCINOMA (NOS);LUNG: ALVEOLAR/BRONCHIOLAR ADENOMA OR CARCINOMA;SPLEE) “active; positive”; (Species: RAT, Strain/Sex: F344/MALE, Route: INHALATION, Dose: 0, 10, 40 PPM 6 HR/D, 5 D/WK FOR 88-103 WK (STUDY DURATION: 89-104 WK), Dose: 0, 10, 40 PPM 6 HR/D, 5 D/WK FOR 88-103 WK (STUDY DURATION: 89-104 WK), Tumor Site: Type of Lesion: NASAL CAVITY: ADENOMA (NOS), ADENOCARCINOMA (NOS), CARCINOMA (NOS), ADENOMATOUS POLYP (NOS), CIRCULATORY SYSTEM: HEMANGI) “active; positive”; (Species: RAT, Strain/Sex: OSBORNE-MENDEL/FEMALE, Route: GAVAGE, Dose: 0, 37, 39 MG/KG, TWA IN CORN OIL (STUDY DURATION: 61 WK), Dose: 0, 37, 39 MG/KG, TWA IN CORN OIL (STUDY DURATION: 61 WK), Tumor Site: Type of Lesion: STOMACH: SQUAMOUS CELL CARCINOMA, LIVER: HEPATOCELLULAR CARCINOMA, NEOPLASTIC NODULE) “active; positive”; (Species: RAT, Strain/Sex: OSBORNE-MENDEL/MALE, Route: GAVAGE, Dose: 0, 38, 41 MG/KG, TWA IN CORN OIL (STUDY DURATION: 49 WK), Dose: 0, 38, 41 MG/KG, TWA IN CORN OIL (STUDY DURATION: 49 WK), Tumor Site: Type of Lesion: BLOOD VESSELS: HEMANGIOSARCOMA, STOMACH: SQUAMOUS CELL CARCINOMA) “active; positive”. Moreover, the carcinogen call is “active; positive” (Species: RAT, Strain/Sex: SPRAGUE-DAWLEY/FEMALE, Route: INHALATION, Dose: 20 PPM 7 HR/D, 5 D/WK FOR 18 MO, Tumor Site: Type of Lesion: SPLEEN: HEMANGIOSARCOMA, ADRENAL GLAND: PHEOCHROMOCYTOMA, CORTICAL ADENOMA, CARCINOMA, MAMMARY GLAND: ADENOMA, FIBROADEN, Tumor Site: Type of Lesion: SPLEEN: HEMANGIOSARCOMA, ADRENAL GLAND: PHEOCHROMOCYTOMA, CORTICAL ADENOMA, CARCINOMA, MAMMARY GLAND: ADENOMA, FIBROADEN) and “active; positive” (Species: RAT, Strain/Sex: SPRAGUE-DAWLEY/MALE, Route: INHALATION, Dose: 20 PPM 7 HR/D, 5 D/WK FOR 18 MO, Tumor Site: Type of Lesion: SPLEEN: HEMANGIOSARCOMA, ADRENAL GLAND: PHEOCHROMOCYTOMA, CORTICAL ADENOMA, CARCINOMA, INTEGUMENTARY SYSTEM (SUBCUTANEOU, Tumor Site: Type of Lesion: SPLEEN: HEMANGIOSARCOMA, ADRENAL GLAND: PHEOCHROMOCYTOMA, CORTICAL ADENOMA, CARCINOMA, INTEGUMENTARY SYSTEM (SUBCUTANEOU).

Consider `CCCCNC(=O)NS(=O)(=O)c1ccc(C)cc1`, for which the carcinogen call reads like this: (Species: MOUSE, Strain/Sex: B6C3F1/FEMALE, Route: ORAL, Dose: 0, 25000, 50000 PPM IN DIET, Dose: 0, 25000, 50000 PPM IN DIET) “inactive; negative”; (Species: MOUSE, Strain/Sex: B6C3F1/MALE, Route: ORAL, Dose: 0, 25000, 50000 PPM IN DIET, Dose: 0, 25000, 50000 PPM IN DIET) “inactive; negative”; (Species: RAT, Strain/Sex: F344/FEMALE, Route: ORAL, Dose: 0, 12000, 24000 PPM IN DIET, Dose: 0, 12000, 24000 PPM IN DIET) “inactive; negative”; (Species: RAT, Strain/Sex: F344/MALE, Route: ORAL, Dose: 0, 12000, 24000 PPM IN DIET, Dose: 0, 12000, 24000 PPM IN DIET) “inactive; negative”.

For `Cc1ccc(Nc2ccc(O)c3c2C(=O)c2ccccc2C3=O)cc1`, the carcinogen call is “inactive; negative” (Species: MOUSE, Strain/Sex: SWISS-WEBSTER/FEMALE, Route: DERMAL, Dose: 0, 1% IN 0.1 ML 0.1% SODIUM LAURYL SULFATE 1/WK FOR 18 MO (STUDY DURATION: 18 MO)) and “inactive; negative” (Species: MOUSE, Strain/Sex: SWISS-WEBSTER/MALE, Route: DERMAL, Dose: 0, 1% IN 0.1 ML 0.1% SODIUM LAURYL SULFATE 1/WK FOR 18 MO (STUDY DURATION: 18 MO)).
